Non-standard residues stand in square brackets, D forms with d. Residues, ends and D or L forms follow the SMILES beside them. *: point of attachment. Pro(4R-Me) = C[C@H]1CN[C@H](C(=O)O)C1; Oleoyl = CCCCCCCC/C=C\CCCCCCCC(=O)*; hSer = N[C@@H](CCO)C(=O)O

Eleven compounds from ChEMBL document CHEMBL4354808, “Drugs for the Treatment of Zika Virus Infection” (J Med Chem, 2020) can be followed below.

Series [1] has as its system Zika virus. Put plainly: Antiviral activity against Zika virus H/PAN/2016/BEI-259634 infected in human NSC by CellTiter-Glo assay. In kind it is functional, organism-based. On the technique in general: Cellular ATP, detected with luciferase, serves as a proxy for viable cell number.
A short description of series [2]: Cytotoxicity against African green monkey Vero cells. The series is classed as cell-based. The conditions noted are these: chlorocebus sabaeus.
Series [3] in a line: Cytotoxicity against human NSC. In kind it is cell-based. The conditions noted are these: NSC cells.
Series [4] relates to Zika virus. Put plainly: Antiviral activity against Zika virus infected in African green monkey Vero cells after 72 hrs by DAPI-staining based assay. The series is classed as functional, organism-based.
Series [5] in a line: Activation of AMPK in African green monkey Vero cells infected with Zika virus PA259459 assessed as antiviral activity measured 24 hrs post infection by plaque assay. The series is classed as cell-based. The conditions noted are these: Chlorocebus aethiops.
Series [6] is described as follows: Inhibition of Protein E in Zika virus infected in African green monkey Vero cells assessed as antiviral activity preincubated for 1 hr followed by viral infection and measured 24 hr post infection by plaque assay. The series is classed as cell-based.
A short description of series [7]: Inhibition of Protein E in Zika virus FLR infected in BHK21 cells assessed as antiviral activity after 12 hrs by CCK8 assay. The conditions noted are these: BHK-21, 12 h. In kind it is cell-based. In general terms: Formazan colour is commonly taken as a measure of viable cells.
A short description of series [8]: Inhibition of Protein E in Zika virus SZ01 infected in BHK21 cells assessed as antiviral activity after 12 hrs by CCK8 assay. The series is classed as cell-based. The conditions noted are these: SZ01, BHK-21, 12 h.
A short description of series [9]: Inhibition of Protein E in Zika virus MR766 infected in BHK21 cells assessed as antiviral activity after 12 hrs by CCK8 assay. In kind it is cell-based. The conditions noted are these: MR766, BHK-21, 12 h.
Series [10] in a line: Cytotoxicity against African green monkey Vero cells after 24 hrs by CCK8 assay. The series is classed as cell-based. The conditions noted are these: chlorocebus sabaeus.
Series [11] is described as follows: Cytotoxicity against BHK21 cells after 24 hrs by CCK8 assay. The series is classed as cell-based, Mesocricetus auratus. The conditions noted are these: hamster, BHK-21 cells.
A short description of series [12]: Cytotoxicity against human HuH7 cells after 24 hrs by CCK8 assay. In kind it is cell-based. The conditions noted are these: Huh-7 cells.
In series [13] the test system is Zika virus. Put plainly: Antiviral activity against Zika virus infected in human A549 cells. The series is classed as functional, organism-based.
Series [14] in a line: Cytotoxicity against human A549 cells. In kind it is cell-based.
Series [15] is described as follows: Cytotoxicity against African green monkey Vero E6 cells measured up to 24 to 72 hrs by MTT assay. The series is classed as cell-based, Vero C1008. The conditions noted are these: chlorocebus sabaeus.
Series [16] deals with Zika virus. Nature of the series: Antiviral activity against Zika virus infected in African green monkey Vero E6 cells assessed as reduction in virus infectivity preincubated with virus for 1 hr followed by cell infection and measured after 96 hrs by crystal violet staining based assay. The series is classed as functional, organism-based. The conditions noted are these: Vero C1008.

The subject of series [17] is Zika virus. Put plainly: Antiviral activity against Zika virus infected in African green monkey Vero E6 cells assessed as reduction in virus infectivity at 160 uM preincubated with virus for 1 hr followed by cell infection and measured after 96 hrs by crystal violet staining based assay relative to control. The series is classed as functional. The conditions noted are these: Vero C1008.

The test system of series [18] is Zika virus. Nature of the series: Antiviral activity against Zika virus MR 766 infected in HBMEC measured 5 days post infection by CellTiter Blue assay. The conditions noted are these: MR 766, 120 h. The series is classed as functional, organism-based. In general terms: Resazurin is reduced to fluorescent resorufin, in cell work by metabolically active cells.
Series [19] relates to Zika virus. Nature of the series: Antiviral activity against Zika virus MR 766 infected in African green monkey Vero cells measured 5 days post infection by CellTiter Blue assay. The series is classed as functional, organism-based. The conditions noted are these: MR 766, Vero, 120 h.
The subject of series [20] is Zika virus. Put plainly: Antiviral activity against Zika virus MR 766 infected in human NSC measured 5 days post infection by CellTiter Blue assay. The conditions noted are these: MR 766, 120 h. In kind it is functional, organism-based.
Series [21] can be described thus: Cytotoxicity against HBMEC after 5 days by CellTiter Blue assay. The conditions noted are these: human.
The nature of series [22]: Cytotoxicity against African green monkey Vero cells after 5 days by CellTiter Blue assay. The series is classed as cell-based. The conditions noted are these: chlorocebus sabaeus.
Series [23] can be described thus: Cytotoxicity against human NSC after 5 days by CellTiter Blue assay. In kind it is cell-based. The conditions noted are these: NSC cells.
Series [24] deals with Zika virus. Put plainly: Antiviral activity against Zika virus infected in African green monkey Vero E6 cells assessed as reduction in virus infectivity at 40 uM preincubated with virus for 1 hr followed by cell infection and measured after 96 hrs by crystal violet staining based assay relative to control. In kind it is functional. The conditions noted are these: Vero C1008.

Series [25] can be described thus: Cytotoxicity against human HuH7 cells by MTS assay. In kind it is cell-based. The conditions noted are these: Huh-7 cells.
For series [26], the system named is Zika virus. Nature of the series: (§1) Inhibition of IMPDH in Zika virus MR766 infected in human HuH7 cells assessed as antiviral activity by measuring reduction in viral replication preincubated for 12 hrs followed by viral infection and measured day 2 post infection by qRT-PCR method. In kind it is cell-based.
Series [27] in a line: as §1. The series is classed as cell-based. The conditions noted are these: MR766, Huh-7.
A short description of series [28]: Cytotoxicity against HBMEC after 24 hrs by resazurin-dye based Alamar blue assay. The conditions noted are these: human.
A short description of series [29]: Inhibition of DHFR in Zika virus Mex2-81 infected in HBMEC assessed as antiviral activity incubated for 24 hrs.
A short description of series [30]: Cytotoxicity against human JEG3 cells by alamarBlue assay. The series is classed as cell-based. The conditions noted are these: JEG-3 cells.
Series [31] deals with Zika virus. Nature of the series: Antiviral activity against Zika virus PRVABC59 Puerto Rico infected in human JEG3 cells after 24 hrs by plaque assay. The conditions noted are these: JEG-3, 24 h. The series is classed as functional, organism-based.

With `O=C(c1cc(Cl)cc(Cl)c1O)c1[nH]c(F)c(Br)c1Br`, the concentration for a half-maximal effect (EC50) in the series with Zika virus [1] came out at 8.56 µM; with Zika virus [4] it was 5.95 µM. In addition, the CC50 in series [2] and in [3] was above 100 µM throughout.

On to `O=C(O)c1c[nH]c2cc(Cl)c(-c3ccc(C4(O)CCC4)cc3)cc12`, for which, in [5], the EC50 was 2.6 µM.

Take `CC[C@H](C)[C@H](NC(=O)[C@H](CO)NC(=O)CNC(=O)[C@H](Cc1ccccc1)NC(=O)[C@H](CC(=O)O)NC(=O)[C@H](Cc1c[nH]c2ccccc12)NC(=O)[C@H](C)N)C(=O)NCC(=O)NCC(=O)N[C@H](C(=O)N[C@@H](Cc1ccccc1)C(=O)N[C@@H](CC(N)=O)C(=O)N[C@@H](CO)C(=O)N[C@H](C(=O)NCC(=O)N[C@@H](CCCCN)C(=O)N[C@@H](C)C(=O)N[C@H](C(=O)N[C@@H](Cc1cnc[nH]1)C(=O)N[C@@H](CCC(N)=O)C(=O)N[C@H](C(=O)N[C@@H](Cc1ccccc1)C(=O)O)C(C)C)C(C)C)[C@@H](C)CC)C(C)C`: the cytotoxic concentration (CC50) in series [2] is above 10 µM. For the same compound, in series [6], the EC50 stood at 3.27 µM.

As for `CC[C@H](C)[C@H](NC(=O)CNC(=O)[C@H](CCCCN)NC(=O)CNC(=O)[C@H](CC(C)C)NC(=O)[C@H](CO)NC(=O)[C@H](CC(N)=O)NC(=O)[C@H](CC(C)C)NC(=O)[C@H](C)NC(=O)CNC(=O)CNC(=O)[C@@H](NC(=O)[C@H](CO)NC(=O)CNC(=O)[C@H](Cc1ccccc1)NC(=O)[C@H](CC(=O)O)NC(=O)[C@H](Cc1c[nH]c2ccccc12)NC(=O)[C@H](C)NC(=O)[C@@H](NC(=O)[C@H](CC(=O)O)NC(=O)CNC(=O)[C@H](CC(C)C)NC(=O)[C@@H](NC(=O)[C@H](C)NC(=O)[C@@H](N)CCSC)C(C)C)[C@@H](C)O)C(C)C)C(=O)N[C@@H](Cc1cnc[nH]1)C(=O)N[C@@H](CCC(N)=O)C(=O)N[C@H](C(=O)N[C@@H](Cc1ccccc1)C(=O)NCC(=O)N[C@@H](C)C(=O)N[C@@H](C)C(=O)N[C@@H](Cc1ccccc1)C(=O)O)[C@@H](C)CC` (H-MAVLGDTAWDFGSVGGALNSLGKGIHQIFGAAF-OH), the EC50 in series [7], in [8] and in [9] was 1.75 to 13.9 µM throughout. The half-maximal cytotoxic concentration (CC50) at 24 h in [10], in [11] and in [12] was above 50 µM each time.

Compound `CCCCCCCC/C=C\CCCCCCCC(=O)N[C@H](C(=O)N1C[C@H](C)C[C@H]1C(=O)N[C@H](C(=O)N[C@@H](CCO)C(=O)N[C@@H](C)C=O)C(C)C)[C@@H](C)O` (Oleoyl-T[Pro(4R-Me)]V[hSer]A-aldehyde) yielded an EC50 in the series with Zika virus [13] of 0.15 µM. The same compound showed a CC50 in series [14] of 1.65 µM.

In [15], `COc1ccc2cc3[n+](cc2c1OC)CCc1cc2c(cc1-3)OCO2` [BERBERINE] returned a CC50 of 221 µM. For the same compound, the IC50 in the series with Zika virus [16] came to 39.1 µM. For the same compound, the inhibition at 160 µM in the series with Zika virus [17] amounted to 77.6%.

Consider `CCN(CC)CCCC(C)Nc1ccnc2cc(Cl)ccc12` (centres undefined) [CHLOROQUINE], for which the concentration for a half-maximal effect (EC50) in the series on Zika virus [18], with Zika virus [19] and with Zika virus [20] was 9.82 to 14.2 µM throughout. The CC50 at 120 h in [21], in series [22] and in series [23] was 95 to 135 µM throughout.

Turning to `Cc1cc(O)c2c(c1)C(=O)c1cc(O)cc(O)c1C2=O` [EMODIN], in the series on Zika virus [24], the inhibition at 40 µM is 88.3%. This compound yielded a half-maximal cytotoxic concentration (CC50) in [15] of 68.6 µM. Moreover, in the series with Zika virus [16], the half-maximal inhibitory concentration (IC50) stood at 3.2 µM.

In [25], `COc1cc(NC(=O)Nc2cccc(CNC(=O)O[C@H]3CCOC3)c2)ccc1-c1cnco1` [MERIMEPODIB] returned a half-maximal cytotoxic concentration (CC50) above 10 µM. Also, in the series with Zika virus [26], the EC90 was found to be 1 µM. In addition, the EC50 in [27] was found to be 0.6 µM.

In turn, `CN(Cc1cnc2nc(N)nc(N)c2n1)c1ccc(C(=O)N[C@@H](CCC(=O)O)C(=O)O)cc1` [METHOTREXATE] gave a CC50 at 24 h in series [28] above 10 µM. Further, the half-maximal effective concentration (EC50) in series [29] was 0.28 µM.

Compound `O=C1C[C@@H](c2ccccc2)Oc2cc(O)cc(O)c21` [PINOCEMBRIN] had a CC50 in [30] of 251 µM. In addition, the EC50 in the series with Zika virus [31] worked out at 17.4 µM.

For orientation: EC50 means the midpoint of the concentration-response curve. As usually defined, the CC50 is the concentration giving 50% cytotoxicity. In general, IC50 refers to the point on the concentration scale where inhibition reaches its midpoint. As usually defined, the inhibition is the share of the control response that was lost under treatment. Usually EC90 stands for the point of the concentration-response curve where the effect stands at 90%.
